Data: patent publication US20040209799A1, “JAK/STAT pathway inhibitors and the uses thereof” (priority 2000, published 2004)
pIC50: −log10 of the molar value.

How the values were obtained:
[1] = target: BTK (Bruton's agarnrnaglobulinaemia tyrosine kinase) (Homo sapiens, UniProt Q06187); experiment: poly (Glu, Tyr) 4:1 ELISA, BTK; type: biochemical
Experimental: (§1) To further examine the inhibition characteristics of DBH (and its variants) to a variety of cellular components, a poly (Glu, Tyr) 4:1 ELISA was performed. Hymenialdisine (H), DBH (as marine sponge extracts: see Chipman and Faulkner, 1997), and three variant forms of synthetic DBH: the free base form of DBH (DBH-2FB), a trifluoroacetic acid salt form of DBH (DBH-2S), and a methanesulfonic acid salt form of DBH (DBH 1) were solubilized in DMSO, and tested for the ability to inhibit; ZAP-70 (ζ-associated polypeptide of 70 kDa) protein tyrosine kinase, BTK (Bruton's agarnrnaglobulinaemia tyrosine kinase), JAK3 (Janus kinase 3) protein tyrosine kinase, LCK (Lymphoid T-cell protein tyrosine kinase), and IGFR (Insulin-like growth factor receptor) protein tyrosine kinase.
(§2) Maxisorb microtiter plates (Nalge Nunc International, Rochester, N.Y.) were coated with 1 mg/ml Poly(Glu,Tyr) 4:1 (Sigma, St. Louis, Mo.) solubilized in phosphate buffered saline (PBS), 0.02% sodium azide. On the day of the assay, microtiter plates were washed 4× with TBS-Tween (25 mM Tris pH 8.0, 150 mM NaCl, 0.05% Tween 20) using a Skatron plate washer (Skatron Instruments, Sterling, Va.). 200 μl of sterile blocking buffer (3% BSA in PBS, 0.02% sodium azide) was added to each well, and the microtiter plates were incubated at 37° C. for 1 hour. The blocking buffer was removed, the plates washed, and various concentrations of inhibitor were added in a 20 μl volume to the wells. 60 μl of the appropriate substrate mix was then added. Substrate mixes were prepared as described in Table 2:
(§3) Following addition of the substrate mix, 20 μl of the test protein tyrosine kinase (in 1× assay buffer) was added. Kinase reactions were incubated 30 min at 37° C., followed by washes in the Skatron plate washer. 100 μl of biotinylated PT-66 anti-phosphotyrosine monoclonal antibody (Sigma, St. Louis, Mo.) (diluted 1:4000 in 0.5% BSA, sterile-filtered TBS) was added to each well, and incubated for an additional 30 minutes at 37° C. […] The samples were then read at 450 nm in a plate reader.

[2] = target: T1, ZAP-70 (ζ-associated polypeptide of 70 kDa) protein tyrosine kinase (Homo sapiens, UniProt P43403); experiment: poly (Glu, Tyr) 4:1 ELISA, ZAP-70; type: biochemical
T1 sequence (P43403 1-619): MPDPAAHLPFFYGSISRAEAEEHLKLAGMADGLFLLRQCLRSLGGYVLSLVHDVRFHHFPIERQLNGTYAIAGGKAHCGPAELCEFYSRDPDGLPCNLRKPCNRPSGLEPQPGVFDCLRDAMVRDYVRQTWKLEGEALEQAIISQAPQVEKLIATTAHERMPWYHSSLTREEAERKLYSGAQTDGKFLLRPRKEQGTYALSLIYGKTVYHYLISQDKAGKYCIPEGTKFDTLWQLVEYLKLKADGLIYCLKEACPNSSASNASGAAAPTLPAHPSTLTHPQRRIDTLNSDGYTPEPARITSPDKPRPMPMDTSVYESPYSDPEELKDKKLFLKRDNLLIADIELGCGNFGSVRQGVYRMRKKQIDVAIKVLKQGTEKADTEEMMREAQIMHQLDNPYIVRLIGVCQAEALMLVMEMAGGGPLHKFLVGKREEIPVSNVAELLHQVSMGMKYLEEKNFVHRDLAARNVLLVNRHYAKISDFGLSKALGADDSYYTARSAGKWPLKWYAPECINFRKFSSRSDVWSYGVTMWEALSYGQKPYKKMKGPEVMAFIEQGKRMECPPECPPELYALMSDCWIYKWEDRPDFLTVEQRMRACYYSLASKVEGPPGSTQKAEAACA
Experimental: as §1, §2, §3

[3] = ec-50 values ranging from hundreds of micromolar to no inhibition (data not shown)

BTK (Bruton's agarnrnaglobulinaemia tyrosine kinase), sequence (Q06187 whole entry, species assumed): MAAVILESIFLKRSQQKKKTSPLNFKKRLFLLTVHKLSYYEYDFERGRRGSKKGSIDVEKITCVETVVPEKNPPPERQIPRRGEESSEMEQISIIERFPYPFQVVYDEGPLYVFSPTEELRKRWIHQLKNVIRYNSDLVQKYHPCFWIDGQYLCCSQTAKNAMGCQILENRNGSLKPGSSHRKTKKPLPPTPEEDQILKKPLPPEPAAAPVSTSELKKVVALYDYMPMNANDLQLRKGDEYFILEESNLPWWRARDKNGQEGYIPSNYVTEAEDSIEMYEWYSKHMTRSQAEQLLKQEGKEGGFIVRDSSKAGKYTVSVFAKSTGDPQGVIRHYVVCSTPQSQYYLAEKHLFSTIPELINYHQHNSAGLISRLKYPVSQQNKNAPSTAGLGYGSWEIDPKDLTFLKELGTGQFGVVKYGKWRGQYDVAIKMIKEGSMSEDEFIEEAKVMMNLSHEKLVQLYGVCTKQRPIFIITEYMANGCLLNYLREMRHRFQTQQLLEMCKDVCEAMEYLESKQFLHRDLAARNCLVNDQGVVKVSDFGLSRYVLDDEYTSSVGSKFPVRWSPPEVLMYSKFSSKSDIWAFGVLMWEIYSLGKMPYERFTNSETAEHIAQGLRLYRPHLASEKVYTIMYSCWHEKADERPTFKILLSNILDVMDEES

| Structure (SMILES) | pIC50 ([1]; values for the four kinases range from 1971 μM to no inhibition, read-out: α-50 value for BTK) | pIC50 ([2]; values for the four kinases range from 1971 μM to no inhibition, read-out: α-50 value for ZAP-70) | Inhibition of BTK [1, 3] | Inhibition of ZAP-70 [2, 3] |
| --- | --- | --- | --- | --- |
| NC1=NC(=O)C(=C2CCNC(=O)c3[nH]ccc32)N1 [DBH-2FB] | ≤ 2.71 | ≤ 2.71 | – | – |
| NC1=NC(=O)C(=C2CCNC(=O)c3[nH]ccc32)N1 [DBH, 4-(2-amino-4-oxo-2-imidazolin-5-ylidene)-4,5,6,7-tetrahydropyrrolo(2,3-c) azepine-8-one] | – | – | weak | weak |
